Results taken from US8835455B2, “Crystalline forms of trans-7-oxo-6-(sulphooxy)-1,6-diazabicyclo[3,2,1]octane-2-carboxamide sodium salt” (Forest Laboratories Holdings Limited, priority 2009, dated 2014).
Read-outs that look alike come from different tables or passages of the source.

Tests used:
[1] = Phase I study Part A, single IV dose, plasma pharmacokinetics; assay type: in vivo, healthy male and female subjects; conditions: for AUC(0-inf) / Cmax / T1/2 / half-life: Geo mean; for Tmax: Median; for pharmacokinetic interaction between ceftaroline fosamil and NXL-104: Phase I Part A, single 600 mg IV doses alone or concomitant
Protocol: (§1) A single center, two-part randomized Phase I Study was conducted to evaluate the safety, tolerability, and pharmacokinetics of single and multiple intravenous doses of ceftaroline fosamil and NXL-104 in healthy male and female subjects, aged 18 through 45 years.
(§2) Part A was an open-label, 3-way crossover, single-dose study to evaluate the safety, tolerability, and pharmacokinetics of ceftaroline and NXL-104 following co-administration of a single intravenous (IV) dose of ceftaroline fosamil and NXL-104 in 12 healthy subjects.
Treatment A: single dose of 600 mg ceftaroline fosamil via IV infusion over one hour.
Treatment B: single dose of 600 mg NXL-104 via IV infusion over one hour.
Treatment C: single dose of 600 mg ceftaroline fosamil and 600 mg NXL-104 via concomitant IV infusion over one hour.
Blood samples were collected at the following times to determine ceftaroline, ceftaroline fosamil, ceftaroline M-1 (metabolite of ceftaroline fosamil), and NXL-104 free-acid plasma concentrations.
Days 1 (Period I), 6 (Period II), and 11 (Period III): in each study period immediately before (within 15 minutes) the start of infusion and after the start of study drug infusion at 20, 40, 60 (immediately before the end of study-drug infusion), 65, and 75 minutes and at 1.5, 2, 3, 4, 6, 8, 12, 18, 24, 36, and 48 hours
The principal parameters describing the pharmacokinetics of ceftaroline, ceftaroline fosamil, ceftaroline M-1 (metabolite of ceftaroline fosamil), and NXL-104 were derived from plasma concentrations using noncompartmental analysis with the software program WinNonlin. Plasma concentrations below the limit of quantification were treated as zero for all PK calculations. The actual sampling times were used in the calculations of PK parameters.
The following PK parameters were determined for ceftaroline, ceftaroline ceftaroline M-1, and NXL-104 free acid: AUC0-t and area under the plasma concentration versus time curve from time zero to infinity (AUC0-∞), Cmax, time of maximum plasma concentration (Tmax), CL, volume of distribution (VA and steady-state volume of distribution (Vss). Minimum plasma concentration (Cmin), accumulation ratio (Rac), and area under the plasma concentration versus time curve during the dosing interval, τ, (AUC0-τ) will be determined following multiple-dose administration.
Because all doses of ceftaroline are expressed in terms of anhydrous, acetate-free ceftaroline fosamil (ceftaroline prodrug, molecular weight=684.68), the following corrections were made to the dose when calculating PK parameters that include doses for ceftaroline (molecular weight=604.70) and ceftaroline M-1 (molecular weight=622.72): Ceftaroline dose=0.883×ceftaroline fosamil dose Ceftaroline M-1 dose=0.909×ceftaroline fosamil dose
The Cmax of ceftaroline, ceftaroline fosamil, ceftaroline M-1, and NXL-104 free acid was determined observationally as the peak concentration for each subject. Tmax was determined as the time corresponding to Cmax.
Area under the plasma concentration versus time curve up to the time corresponding to the last measurable concentration (AUC0-t) was calculated by numeric integration using the linear trapezoidal rule as follows:
Estimates of T1/2 were calculated using the following equation: T1/2=0.693/λz
The AUC0-∞ was calculated according to the following equation: AUC0-∞=AUC0-t+Clast/λz
CL was calculated with the following equation: CL=Doseiv/AUC0-∞
Vz based on the terminal phase was determined as: Vz=Doseiv/λz×AUC0-∞
In part A, PK parameters were compared by analysis of variance using SAS version 9.1.3 on a UNIX operating system. A general linear model with sequence, subject within sequence, treatment, and period as factors was used as the basis for the analysis. […]

[2] = Behaviour of crystalline forms in humid atmosphere; assay type: physicochemical
Text: The invention also relates to processes for making a dihydrate form of the sodium salt of (1R,2S,5R)-7-oxo-6-sulphooxy-1,6-diazabicyclo[3.2.1]octane-2-carboxamide called Form III. In exemplary embodiments, crystals of Form II are suspended in water, and the suspension is then left to evaporate slowly in a humid atmosphere. Crystals can also been obtained by trituration of crystals of Form II in water or in an alkanol-water mixture, or by conversion, in a humid atmosphere, of the anhydrous Form I and Form IV to the monohydrated Form II and then to the dihydrated Form III.

[3] = Phase I study, safety and tolerability; assay type: in vivo, healthy male and female subjects; conditions: healthy subjects, IV
Protocol: as §1, §2
The following procedures were performed and recorded at screening: • Collect blood samples for serology testing, hematology evaluation (including CBC, prothrombin time and international normalized ratio [PT/INR], partial thromboplastin time [PTT], free hemoglobin, haptoglobin, and reticulocyte count), and comprehensive metabolic panel • Collect urine for UA (including urine microscopy) and for drugs-of-abuse screen • Perform β-HCG serum pregnancy test (female subjects only) • Calculate CrCl and BMI • Assess vital signs • Perform 12-lead ECG • Perform complete physical examination • Assess prior medications • Record medical and surgical history • Record any spontaneously reported AE or SAE between signing of informed consent and Day —1 for subjects who comply with all screening processes […]

[4] = Assay for NXL-104 and related substances (reverse phase gradient HPLC, UV 195 nm) on stored samples; assay type: physicochemical; conditions: vial at 25° C./60% RH
Protocol: Assay for NXL-104 and Related Substances
NXL-104 and related substances in compositions comprising trans-7-oxo-6-(sulphooxy)-1,6-diazabicyclo[3,2,1]octane-2-carboxamide sodium salt were determined by a reverse phase gradient HPLC method with UV detection at 195 nm.
(§3) The following parameters were used for analysis:
(§4) Column: Inertsil ODS-3, 250 mm×4.6 mm, 5 μm
Mobile Phase A: 100 mM KH2PO4 Solution
Mobile Phase B: Acetonitrile: Water, [50:50 (v:v)]
(§5) Column Temperature: 25° C.
Autosampler Temperature: 5° C.
(§6) Detector/Setting: UV/195 nm
Run Time: about 25 minutes
Injector Washing Solution: Acetonitrile:Water, [10:90 (v:v)]
Approximate relative retention times (RRT) values for trans-7-oxo-6-(sulphooxy)-1,6-diazabicyclo[3,2,1]octane-2-carboxamide sodium salt and disulfate were 1.00 and 0.37.
The stability of amorphous trans-7-oxo-6-(sulphooxy)-1,6-diazabicyclo[3,2,1]octane-2-carboxamide sodium salt stored in a vial stored at 25° C. with a relative humidity of 60% (25° C./60% RH) was evaluated using the NXL-104 assay described above.
NXL-104 and related substances were measured according to the assay described in Example 6.

[5] = Decarbonyl degradation product of NXL-104 (reverse phase gradient HPLC, UV 195 nm); assay type: physicochemical; conditions: vial at 25° C./60% RH
Protocol: The decarbonyl degradation product of trans-7-oxo-6-(sulphooxy)-1,6-diazabicyclo[3,2,1]octane-2-carboxamide sodium salt was determined by a reverse phase gradient HPLC method with UV detection at 195 nm.
as §3, §4
Mobile Phase A: Deionized Water
Mobile Phase B: 50 mM KH2PO4 solution: Acetonitrile, [50:50 (v:v)]
as §5, §6
Run Time (Approximate): 35 minutes
Injector Washing Solution: Acetonitrile:Water, [50:50 (v:v)] (Recommended)
Approximate relative retention time (RRT) for decarbonyl was 0.17.

pH of stability samples = assay type: physicochemical; conditions: vial at 25° C./60% RH
[6] = Treatment 600 mg Ceftaroline fosamil
[7] = Treatment 600 mg NXL-104 + Ceftaroline fosamil 600 mg
[8] = both sexes, human, plasma, iv, 600 mg, Treatment 600 mg Ceftaroline fosamil
[9] = both sexes, human, plasma, iv, 600 mg, Treatment 600 mg Ceftaroline fosamil, read-out: AUC0-inf
[10] = both sexes, human, plasma, iv, 600 mg, Treatment 600 mg Ceftaroline fosamil, read-out: Cmax
[11] = both sexes, human, plasma, iv, 600 mg, Treatment 600 mg NXL-104 + Ceftaroline fosamil 600 mg
[12] = both sexes, human, plasma, iv, 600 mg, Treatment 600 mg NXL-104 + Ceftaroline fosamil 600 mg, read-out: AUC0-inf
[13] = both sexes, human, plasma, iv, 600 mg, Treatment 600 mg NXL-104 + Ceftaroline fosamil 600 mg, read-out: Cmax
[14] = both sexes, human, plasma, iv, Treatment 600 mg Ceftaroline fosamil, read-out: Tmax

## CCO/N=C(\C(=O)N[C@H](C(=O)[O-])[C@@H]1NC(C(=O)[O-])=C(Sc2nc(-c3cc[n+](C)cc3)cs2)CS1)c1nsc(N)n1.[H+] [Ceftaroline M-1]
[1]; [6]
  AUC(0-inf): 16420 ng·h/mL
  Cmax: 3290 ng/mL
  T1/2: 3.75 h
  Tmax: 1.08 h
[1]; [7]
  AUC(0-inf): 15780 ng·h/mL
  Cmax: 3210 ng/mL
  T1/2: 3.78 h
  Tmax: 1.04 h

## CCO/N=C(\C(=O)N[C@@H]1C(=O)N2C(C(=O)[O-])=C(Sc3nc(-c4cc[n+](C)cc4)cs3)CS[C@H]12)c1nsc(N)n1 [Ceftaroline]
[1]; [8]
  half-life: 2.51 h
[1]; [9]
  AUC(0-inf): 61000 ng·h/mL
[1]; [10]
  Cmax: 24800 ng/mL
[1]; [11]
  half-life: 2.47 h
[1]; [12]
  AUC(0-inf): 60000 ng·h/mL
[1]; [13]
  Cmax: 26700 ng/mL
[1]; [14]
  Tmax: 1 h

## NC(=O)[C@@H]1CC[C@@H]2CN1C(=O)N2OS(=O)(=O)[O-].[Na+] [Form III, trans-7-oxo-6-(sulphooxy)-1,6-diazabicyclo[3,2,1]octane-2-carboxamide sodium salt]
[2]
  stability at higher humidities: particularly stable

## NC(=O)[C@@H]1CC[C@@H]2CN1C(=O)N2OS(=O)(=O)[O-].[Na+] [NXL-104, trans-7-oxo-6-(sulphooxy)-1,6-diazabicyclo[3,2,1]octane-2-carboxamide sodium salt]
[3]
  safety: no safety concerns
[1]
  pharmacokinetic interaction between ceftaroline fosamil and NXL-104: no pharmacokinetic interactions
[1]; [11]
  half-life: 1.63 h
[1]; [12]
  AUC(0-inf): 51200 ng·h/mL
[1]; [13]
  Cmax: 29100 ng/mL
[1]; both sexes, human, plasma, iv, 600 mg, Treatment 600 mg NXL-104
  half-life: 1.64 h
[1]; both sexes, human, plasma, iv, 600 mg, Treatment 600 mg NXL-104, read-out: AUC0-inf
  AUC(0-inf): 51900 ng·h/mL
[1]; both sexes, human, plasma, iv, 600 mg, Treatment 600 mg NXL-104, read-out: Cmax
  Cmax: 29500 ng/mL
[1]; both sexes, human, plasma, iv, Treatment 600 mg NXL-104, read-out: Tmax
  Tmax: 1 h

## NC(=O)[C@@H]1CC[C@@H]2CN1C(=O)N2OS(=O)(=O)[O-].[Na+] [amorphous NXL-104, trans-7-oxo-6-(sulphooxy)-1,6-diazabicyclo[3,2,1]octane-2-carboxamide sodium salt]
[4]; 1 month
  Disulfate: 0.19%
  NXL-104 %: 111.3%
  Total Impurities, NXL-104 related: 0.89%
[4]; 3 months
  Disulfate: 0.17%
  NXL-104 %: 108.0%
  Total Impurities, NXL-104 related: 0.92%
[4]; 6 months
  Disulfate: 0.17%
  NXL-104 %: 106.1%
  Total Impurities, NXL-104 related: 0.87%
[4]; Initial
  Disulfate: 0.19%
  NXL-104 %: 106.4%
  Total Impurities, NXL-104 related: 0.90%
[5]; 1 month
  Decarbonyl: 0.46%
[5]; 3 months
  Decarbonyl: 0.48%
[5]; 6 months
  Decarbonyl: 0.33%
[5]; Initial
  Decarbonyl: 0.63%
pH of stability samples; 1 month
  pH: 7.3
pH of stability samples; 3 months
  pH: 7.2
pH of stability samples; 6 months
  pH: 7.3
pH of stability samples; Initial
  pH: 7.0

## CCO/N=C(\C(=O)N[C@@H]1C(=O)N2C(C(=O)[O-])=C(Sc3nc(-c4cc[n+](C)cc4)cs3)CS[C@H]12)c1nsc(NP(=O)(O)O)n1 [ceftaroline fosamil, (6R,7R)-7-{(2Z)-2-(ethoxyimino)-2-[5-(phosphonoamino)-1,2,4-thiadiazol-3-yl]acetamido}-3-{[4-(1-methylpyridin-1-ium-4-yl)-1,3-thiazol-2-yl]sulfanyl}-8-oxo-5-thia-1-azabicyclo[4.2.0]oct-2-ene-2-carboxylate]
[3]
  safety: no safety concerns
[1]
  pharmacokinetic interaction between ceftaroline fosamil and NXL-104: no pharmacokinetic interactions
[1]; [8]
  half-life: 0.084 h
[1]; [9]
  AUC(0-inf): 2170 ng·h/mL
[1]; [10]
  Cmax: 2110 ng/mL
[1]; [11]
  half-life: 0.055 h
[1]; [12]
  AUC(0-inf): 2160 ng·h/mL
[1]; [13]
  Cmax: 2370 ng/mL
[1]; [14]
  Tmax: 0.67 h
